According to patent US9540397B2, “BACE1 inhibitors” (Hoffmann-La Roche Inc., priority 2014, dated 2017):

Biological target: T1, BACE1 (Homo sapiens, UniProt P56817)
T1 construct: endogenous in cells; host or cells: HEK293 APP cells
Assay: Cellular Aβ-lowering assay (Abeta 40 AlphaLISA, HEK293 APP cells)
Format: cell-based
Settings: 18-20 hrs incubation, Aβ40 in culture supernatant, read-out: BACE1 cell act. Aβ40 IC50
Procedure: Cellular Aβ-lowering assay:
The Abeta 40 AlphaLISA Assay can be used. The HEK293 APP cells were seeded in 96 well Microtiter plates in cell culture medium (Iscove's, plus 10% (v/v) fetal bovine serum, penicillin/streptomycin) to about 80% confluency and the compounds were added at a 3× concentration in ⅓ volume of culture medium (final DMSO concentration was kept at 1% v/v). After 18-20 hrs incubation at 37° C. and 5% CO2 in a humidified incubator, the culture supernatants were harvested for the determination of AP 40 concentrations using Perkin-Elmer Human Amyloid beta 1-40 (high specificity) Kit (Cat#AL275C).
In a Perkin-Elmer White Optiplate-384 (Cat#6007290), 2 ul culture supernatants were combined with 2 μl of a 10× AlphaLISA Anti-hAβ Acceptor beads+Biotinylated Antibody Anti-Aβ 1-40 Mix ([…]/5 nM). After 1 hour room temperature incubation, 16 μl of a 1.25× preparation of Streptavidin (SA) Donor beads (25 μg/mL) were added and incubated for 30 minutes in the Dark. Light Emission at 615 nm was then recorded using EnVision-Alpha Reader. Levels of Aβ 40 in the culture supernatants were calculated as percentage of maximum signal (cells treated with 1% DMSO without inhibitor). The IC50 values were calculated using the Excel XLfit software.

T1 sequence (P56817 46-501): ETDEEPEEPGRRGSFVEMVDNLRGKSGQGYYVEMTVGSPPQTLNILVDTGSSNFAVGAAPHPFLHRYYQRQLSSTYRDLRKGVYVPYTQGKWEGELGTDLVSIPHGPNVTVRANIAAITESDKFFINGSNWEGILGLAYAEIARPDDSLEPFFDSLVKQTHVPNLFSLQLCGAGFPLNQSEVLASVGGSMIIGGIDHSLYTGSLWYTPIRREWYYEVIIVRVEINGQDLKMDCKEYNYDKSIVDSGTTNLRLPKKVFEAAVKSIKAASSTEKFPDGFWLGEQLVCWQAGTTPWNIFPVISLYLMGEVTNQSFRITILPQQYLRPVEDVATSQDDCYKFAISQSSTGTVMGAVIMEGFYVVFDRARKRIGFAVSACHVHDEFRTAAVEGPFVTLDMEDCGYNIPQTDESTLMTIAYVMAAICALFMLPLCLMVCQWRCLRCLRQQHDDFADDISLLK

SMILES	IC50 [nM]
Cc1cc(F)cnc1C(=O)Nc1ccc(F)c([C@@]2(C)N=C(N)C(C)(C)[S@]3(=O)=NCC[C@H]23)n1 [Example 10BA, N-(6-((3aR,4R,8S)-6-amino-4,7,7-trimethyl-8-oxido-3,3a,4,7-tetrahydro-2H-isothiazolo[1,5-a][1,4]thiazin-4-yl)-5-fluoropyridin-2-yl)-5-fluoro-3-methylpicolinamide]	420
CC1(C)C(N)=N[C@](C)(c2nc(NC(=O)c3ncc(F)cc3Cl)ccc2F)[C@H]2CCN=[S@]21=O [Example 11BA, N-(6-((3aR,4R,8S)-6-amino-4,7,7-trimethyl-8-oxido-3,3a,4,7-tetrahydro-2H-isothiazolo[1,5-a][1,4]thiazin-4-yl)-5-fluoropyridin-2-yl)-3-chloro-5-fluoropicolinamide]	117
Cc1cc(Cl)cnc1C(=O)Nc1ccc(F)c([C@@]2(C)N=C(N)C(C)(C)[S@]3(=O)=NCC[C@H]23)n1 [Example 12BA, N-(6-((3aR,4R,8S)-6-amino-4,7,7-trimethyl-8-oxido-3,3a,4,7-tetrahydro-2H-isothiazolo[1,5-a][1,4]thiazin-4-yl)-5-fluoropyridin-2-yl)-5-chloro-3-methylpicolinamide]	24.2
CC1(C)C(N)=N[C@](C)(c2nc(NC(=O)c3ccc(OCF)cn3)ccc2F)[C@H]2CCN=[S@]21=O [Example 13BA, N-(6-((3aR,4R,8S)-6-amino-4,7,7-trimethyl-8-oxido-3,3a,4,7-tetrahydro-2H-isothiazolo[1,5-a][1,4]thiazin-4-yl)-5-fluoropyridin-2-yl)-5-(fluoromethoxy)picolinamide]	382
CC1(C)C(N)=N[C@](C)(c2nc(NC(=O)c3ccc(OC(F)F)cn3)ccc2F)[C@H]2CCN=[S@]21=O [Example 14BA, N-(6-((3aR,4R,8S)-6-amino-4,7,7-trimethyl-8-oxido-3,3a,4,7-tetrahydro-2H-isothiazolo[1,5-a][1,4]thiazin-4-yl)-5-fluoropyridin-2-yl)-5-(difluoromethoxy)picolinamide]	52.6
CC1(C)C(N)=N[C@](C)(c2nc(NC(=O)c3ccc(OCC(F)(F)C(F)F)cn3)ccc2F)[C@H]2CCN=[S@]21=O [Example 15BA, N-(6-((3aR,4R,8S)-6-amino-4,7,7-trimethyl-8-oxido-3,3a,4,7-tetrahydro-2H-isothiazolo[1,5-a][1,4]thiazin-4-yl)-5-fluoropyridin-2-yl)-5-(2,2,3,3-tetrafluoropropoxy)picolinamide]	557
COc1cnc(C(=O)Nc2ccc(F)c([C@@]3(C)N=C(N)C(C)(C)[S@]4(=O)=NCC[C@H]34)n2)cn1 [Example 16BA, N-(6-((3aR,4R,8S)-6-amino-4,7,7-trimethyl-8-oxido-3,3a,4,7-tetrahydro-2H-isothiazolo[1,5-a][1,4]thiazin-4-yl)-5-fluoropyridin-2-yl)-5-methoxypyrazine-2-carboxamide]	115
CC1(C)C(N)=N[C@](C)(c2nc(NC(=O)c3cnc(OC(F)F)cn3)ccc2F)[C@H]2CCN=[S@]21=O [Example 26BA, N-(6-((3aR,4R,8S)-6-amino-4,7,7-trimethyl-8-oxido-3,3a,4,7-tetrahydro-2H-isothiazolo[1,5-a][1,4]thiazin-4-yl)-5-fluoropyridin-2-yl)-5-(difluoromethoxy)pyrazine-2-carboxamide]	152
CC1(C)C(N)=N[C@](C)(c2nc(NC(=O)c3ccc(F)cn3)ccc2F)[C@H]2CCN=[S@]21=O [Example 27BA, N-(6-((3aR,4R,8S)-6-amino-4,7,7-trimethyl-8-oxido-3,3a,4,7-tetrahydro-2H-isothiazolo[1,5-a][1,4]thiazin-4-yl)-5-fluoropyridin-2-yl)-5-fluoropicolinamide]	118
CC1(C)C(N)=N[C@](C)(c2nc(NC(=O)c3ccc(C#N)cc3)ccc2F)[C@@H]2CCN=[S@@]21=O [Example 30AB, N-(6-((3aS,4R,8R)-6-amino-4,7,7-trimethyl-8-oxido-3,3a,4,7-tetrahydro-2H-isothiazolo[1,5-a][1,4]thiazin-4-yl)-5-fluoropyridin-2-yl)-4-cyanobenzamide]	14
CC1(C)C(N)=N[C@](C)(c2nc(NC(=O)c3ccc(C#N)cc3Cl)ccc2F)[C@@H]2CCN=[S@@]21=O [Example 31AB, N-(6-((3aS,4R,8R)-6-amino-4,7,7-trimethyl-8-oxido-3,3a,4,7-tetrahydro-2H-isothiazolo[1,5-a][1,4]thiazin-4-yl)-5-fluoropyridin-2-yl)-2-chloro-4-cyanobenzamide]	34
COc1cnc(C(=O)Nc2ccc(F)c([C@@]3(C)N=C(N)C(C)(C)[S@@]4(=O)=NCC(F)(F)C[C@H]34)n2)cn1 [Example 38AA, N-(6-((4aR,5R,9R)-7-amino-3,3-difluoro-5,8,8-trimethyl-9-oxido-2,3,4,4a,5,8-hexahydro-[1,4]thiazino[2,1-f][1,2]thiazin-5-yl)-5-fluoropyridin-2-yl)-5-methoxypyrazine-2-carboxamide]	295
Cc1cc(F)cnc1C(=O)Nc1ccc(F)c([C@@]2(C)N=C(N)C(C)(C)[S@@]3(=O)=NCC(F)(F)C[C@H]23)n1 [Example 39AA, N-(6-((4aR,5R,9R)-7-amino-3,3-difluoro-5,8,8-trimethyl-9-oxido-2,3,4,4a,5,8-hexahydro-[1,4]thiazino[2,1-f][1,2]thiazin-5-yl)-5-fluoropyridin-2-yl)-5-fluoro-3-methylpicolinamide]	114
CC1(C)C(N)=N[C@](C)(c2nc(NC(=O)c3ccc(C(=O)O)cn3)ccc2F)[C@H]2CC(F)(F)CN=[S@@]21=O [Example 44AA, 6-((6-((4aR,5R,9R)-7-amino-3,3-difluoro-5,8,8-trimethyl-9-oxido-2,3,4,4a,5,8-hexahydro-[1,4]thiazino[2,1-f][1,2]thiazin-5-yl)-5-fluoropyridin-2-yl)carbamoyl)nicotinic acid]	> 40
CC1(C)C(N)=N[C@](C)(c2nc(NC(=O)c3cnc(OCC(F)F)cn3)ccc2F)[C@H]2CC(F)(F)CN=[S@@]21=O [Example 46AA, N-(6-((4aR,5R,9R)-7-amino-3,3-difluoro-5,8,8-trimethyl-9-oxido-2,3,4,4a,5,8-hexahydro-[1,4]thiazino[2,1-f][1,2]thiazin-5-yl)-5-fluoropyridin-2-yl)-5-(2,2-difluoroethoxy)pyrazine-2-carboxamide]	144
CC#Cc1ccc(C(=O)Nc2ccc(F)c([C@@]3(C)N=C(N)C(C)(C)[S@@]4(=O)=NCC(F)(F)C[C@H]34)n2)nc1 [Example 47AA, N-(6-((4aR,5R,9R)-7-amino-3,3-difluoro-5,8,8-trimethyl-9-oxido-2,3,4,4a,5,8-hexahydro-[1,4]thiazino[2,1-f][1,2]thiazin-5-yl)-5-fluoropyridin-2-yl)-5-(prop-1-yn-1-yl)picolinamide]	147
Cc1cc(C#N)cnc1C(=O)Nc1ccc(F)c([C@@]2(C)N=C(N)C(C)(C)[S@@]3(=O)=NCC4(CC4)C[C@@H]23)n1 [Example 48AB, N-(6-((4aS,5R,9R)-7-amino-5,8,8-trimethyl-9-oxido-4,4a,5,8-tetrahydro-2H-spiro[[1,4]-thiazino[2,1-f][1,2]thiazine-3,1′-cyclopropan]-5-yl)-5-fluoropyridin-2-yl)-5-cyano-3-methylpicolinamide]	13
CC1(C)C(N)=N[C@](C)(c2nc(NC(=O)c3nn(C(F)F)cc3Cl)ccc2F)[C@@H]2CCN=[S@@]21=O [Example 51AB, N-(6-((3aS,4R,8R)-6-amino-4,7,7-trimethyl-8-oxido-3,3a,4,7-tetrahydro-2H-isothiazolo[1,5-a][1,4]thiazin-4-yl)-5-fluoropyridin-2-yl)-4-chloro-1-(difluoromethyl)-1H-pyrazole-3-carboxamide]	< 10
